Among the data in patent EP0719267B1, “SECOND MESSENGER CELL SIGNALING INHIBITORS” (CELL THERAPEUTICS, INC., priority 1993, dated 1994) are IC50 and PDGF-directed chemotaxis values, retold here.

Holding throughout (format): cell-based
For one assay, the system named is murine splenocytes. Description: Anti-CD3 stimulated splenocyte proliferation. The conditions noted are these: Mus musculus. The protocol:
In the assay, murine splenocytes were activated with a monoclonal antibody directed against CD3 (1 µg/ml), resulting in an IL-2 mediated proliferative response.
45 (1 µM). […] The supernatants were harvested and assayed for cytokine levels using commercial ELISAs for proliferation.

Assay [1] concerns human mixed leukocyte reaction (MLR). Put plainly: Mixed leukocyte reaction (MLR), two HLA disparate individuals. The conditions noted are these: 144 h, 6 days co-culture. The protocol:
Figures 50A and 50B illustrate that compound no. 45 inhibits a murine mixed tumor lymophocyte culture (MTLC) and a human mixed leukocyte reaction (MLR). In the MTLC, splenocytes were stimulated (co-culture) with an alloantigen, B cell tumor target cell line (2PK3) in the presence or absence of compound no. 45. Cells were stimulated for 3 days, ^3H-TdR was added and the cells were harvested 4 hours later. Incorporation of ^3H-TdR was determined by liquid scintillation. Background counts were 1000-1200 CPM. For the human MLR, purified peripheral lymphocytes from two HLA disparate individuals were co-cultured for 6 days with or without compound no. 45. On the 7th day the cultures were pulsed with ^3HTdR for 24 hours and counted by scintillation.

Assay [2] has as its system human smooth muscle cells (SMC). Description: Chemotaxis of smooth muscle cells to PDGF (Boyden chamber). The conditions noted are these: eight hours. The protocol:
Figure 71 illustrates that inventive compound no. […] In the assay, cells were seeded in a Boyden chamber with or without various concentrations of inventive compound no. 58. Eight hours later, the number of cells that had migrated were scored visually. Inventive compound no.

Where two headings read alike, the source gives them in different places.

`CCCCCCCCNCC(O)CCCCCCCCCn1c(=O)c2c(ncn2C)n(C)c1=O` (stereo not shown) [compound no. 45]: the IC50 with murine splenocytes (anti-CD3 (1 µg/ml), read-out: IC50) is about 850 nM; in the assay with murine splenocytes (read-out: concentration approximately equal to IC50 value) it was about 1000 nM; in assay [1], about 500 nM.

Regarding `COc1cc(CNCC(O)CCCCCCCCCn2c(=O)c3c(ncn3C)n(C)c2=O)cc(OC)c1OC` (stereo not shown) [compound no. 58, 1-[11-(3,4,5-Trimethoxybenzylamino)-10-hydroxyundecyl]-3,7-dimethylxanthine], the PDGF-directed chemotaxis result in assay [2] is recorded as “had no effect on PDGF-directed SMC chemotaxis”.
